# Results published in EP2151441A1, “Beta-carbolin-derivates as substrates for an enzyme” (Julius-Maximilians-Universität Würzburg, priority 2008, dated 2010).
# Where two headings read alike, the source gives them in different places.
# Assays:
# [1] = biological target: T1, CYP3A4 (Homo sapiens, UniProt P08684); conditions: cited from earlier work; for Km: according to US 6,207,404 (BFC, BzRes) or Walsky and Obach 2004 (Midazolam)
# [2] = biological target: T2, recombinant human CPY3A4 (Homo sapiens, UniProt P08684); assay: Catalytic activity of CYP3A4 for the reaction with substance 1a; format: biochemical
# T2 construct: purchased BD Biosciences (Supersomes)
# T2 sequence (P08684 whole entry): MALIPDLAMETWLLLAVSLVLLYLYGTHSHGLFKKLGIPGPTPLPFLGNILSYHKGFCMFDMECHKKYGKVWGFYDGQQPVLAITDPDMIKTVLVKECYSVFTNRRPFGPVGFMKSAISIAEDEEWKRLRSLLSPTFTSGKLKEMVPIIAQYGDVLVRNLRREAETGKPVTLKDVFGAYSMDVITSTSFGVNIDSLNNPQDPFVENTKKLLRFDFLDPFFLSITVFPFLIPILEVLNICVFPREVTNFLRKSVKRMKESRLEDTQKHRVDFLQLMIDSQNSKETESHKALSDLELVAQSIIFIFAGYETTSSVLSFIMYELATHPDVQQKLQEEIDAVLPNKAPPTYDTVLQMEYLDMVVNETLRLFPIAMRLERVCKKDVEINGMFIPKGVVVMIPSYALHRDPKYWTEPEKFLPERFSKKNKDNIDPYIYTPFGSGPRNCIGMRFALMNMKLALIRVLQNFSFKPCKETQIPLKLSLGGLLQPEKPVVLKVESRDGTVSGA
# Method: After incubation for 20 minutes at 37°C the metabolite 1b was quantified using liquid chromatography followed by mass spectrometry. For this reaction 4.5 pmol/min/pmol CYP3A4 could be determined as activity of the enzyme. According to US 6,207,404 the activity of CYP3A4 for the reaction of BFC at a concentration of 50 µM is about 1.5 pmol/min/pmol CYP3A4. […] For the determination of the catalytic activity of other CYP-enzymes with respect to the reaction of substance 1a 2 µM of substance 1a were contacted with 15 pmol/ml CYP enzyme (Supersomes®, BD Biosciences) and 2 mM NADPH in 100 mM potassium phosphate puffer (pH 7.4; 3 mM MgCl2) with the exception of CYP3A4 that was used at a concentration of 5 pmol/ml.
# [3] = biological target: T3, CYP1B1 (Homo sapiens, UniProt Q16678); assay: Catalytic activity of other CYP enzymes for the reaction of substance 1a; format: biochemical; conditions: 2 µM substance 1a, 15 pmol/ml CYP enzyme, Fig. 2
# T3 construct: purchased BD Biosciences (Supersomes)
# T3 sequence (Q16678 1-543): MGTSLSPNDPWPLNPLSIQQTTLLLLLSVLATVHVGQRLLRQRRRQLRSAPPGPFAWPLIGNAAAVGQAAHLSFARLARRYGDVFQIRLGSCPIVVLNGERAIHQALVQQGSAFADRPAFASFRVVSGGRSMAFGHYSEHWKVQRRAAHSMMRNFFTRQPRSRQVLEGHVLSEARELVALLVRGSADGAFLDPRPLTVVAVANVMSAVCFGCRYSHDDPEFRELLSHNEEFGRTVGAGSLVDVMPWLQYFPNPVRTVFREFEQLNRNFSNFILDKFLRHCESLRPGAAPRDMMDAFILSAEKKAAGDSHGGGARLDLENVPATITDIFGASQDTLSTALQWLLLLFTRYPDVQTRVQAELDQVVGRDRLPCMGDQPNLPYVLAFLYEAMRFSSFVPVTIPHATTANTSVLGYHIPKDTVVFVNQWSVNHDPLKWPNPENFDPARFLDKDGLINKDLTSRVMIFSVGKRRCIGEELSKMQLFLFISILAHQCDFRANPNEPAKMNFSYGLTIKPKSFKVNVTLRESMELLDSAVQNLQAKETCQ
# Method: (§1) For the determination of the catalytic activity of other CYP-enzymes with respect to the reaction of substance 1a 2 µM of substance 1a were contacted with 15 pmol/ml CYP enzyme (Supersomes®, BD Biosciences) and 2 mM NADPH in 100 mM potassium phosphate puffer (pH 7.4; 3 mM MgCl2) with the exception of CYP3A4 that was used at a concentration of 5 pmol/ml.
# [4] = biological target: T4, CYP2D6 (Homo sapiens, UniProt P10635); assay: as above; format: biochemical; conditions: 2 µM substance 1a, 15 pmol/ml CYP enzyme, Fig. 2
# T4 construct: purchased BD Biosciences (Supersomes)
# T4 sequence (P10635 whole entry): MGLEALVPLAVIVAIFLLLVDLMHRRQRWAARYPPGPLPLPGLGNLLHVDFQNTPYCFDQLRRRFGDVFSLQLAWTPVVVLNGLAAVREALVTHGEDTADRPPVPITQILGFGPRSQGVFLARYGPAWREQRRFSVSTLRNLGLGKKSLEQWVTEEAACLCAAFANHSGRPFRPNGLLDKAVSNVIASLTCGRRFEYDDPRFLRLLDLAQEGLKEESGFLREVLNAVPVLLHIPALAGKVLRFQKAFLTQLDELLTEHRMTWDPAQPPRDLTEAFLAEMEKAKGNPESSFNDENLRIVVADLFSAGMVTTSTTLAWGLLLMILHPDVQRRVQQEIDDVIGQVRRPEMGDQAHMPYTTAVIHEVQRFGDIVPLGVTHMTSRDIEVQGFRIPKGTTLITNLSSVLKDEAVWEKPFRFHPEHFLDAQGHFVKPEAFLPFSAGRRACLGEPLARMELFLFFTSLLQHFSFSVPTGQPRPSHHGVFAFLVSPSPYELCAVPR
# Method: as §1
# [5] = biological target: T1, CYP3A4; assay: Determination of Km and Vmax of the CYP3A4-catalyzed O-dealkylation reaction (LC-MS quantification of reaction product 1b); format: biochemical; parameters: purchased BD Biosciences (Supersomes); conditions: Vmax comparison with BFC
# Method: The Michaelis-Menten constant (Km) and the maximal reaction velocity (Vmax) are important parameters for inhibition assays. To determine the inhibitory activity of test compounds the substrate concentration in the assay should be about the Km value. […] After incubation for 20 minutes at 37°C the reaction product 1b was quantified using mass spectrometry after liquid chromatography. […] For the calculation of Km and Vmax the Sigma Plot 10.0 software with enzyme kinetic module (SPSS, Inc., Chicago, IL, USA) was used.
# [6] = according to US 6,207,404 (BzRes) or Walsky and Obach 2004 (Midazolam)
# T1 sequence (P08684 whole entry): as the sequence (P08684 whole entry) above
smiles,measurement,setting,value
"O=c1ccc2nc3ccc(OCc4ccccc4)cc3oc-2c1 [BzRes, benzyloxyresorufin]",Km,[1],38 µM
same,Vmax,[1]; [6],0.3 pmol/min/pmol CYP3A4
"Cc1c2[nH]c3cc(OCc4ccccc4)ccc3c2cc[n+]1Cc1ccccc1.O=C([O-])C(F)(F)F [Substance 1a, 2-benzyl-7-benzyloxy-1-methyl-9H-pyrido[3,4-b]indol-2-ium trifluoroacetate salt]",activity of the enzyme relative to the reaction of BFC,[2]; 2 µM 1a versus 50 µM BFC,3 fold
same,activity of the enzyme,"[2]; 2 µM substance 1a, 5 pmol/ml CYP3A4, 2 mM NADPH, 20 minutes at 37°C",4.5 pmol/min/pmol CYP3A4
same,reaction of substrate 1a to reaction product 1b catalyzed by enzyme,"[2]; 2 µM substance 1a, CYP3A4 at 5 pmol/ml, Fig. 2",could be catalyzed
same,reaction of substrate 1a to reaction product 1b catalyzed by enzyme,[3],could be catalyzed
same,reaction of substrate 1a to reaction product 1b catalyzed by enzyme,[4],could be catalyzed
same,reaction velocity relative to BFC,[5],about 5 fold
Cc1ncc2n1-c1ccc(Cl)cc1C(c1ccccc1F)=NC2 [Midazolam],Km,[1],0.6 µM
same,Vmax,[1]; [6],16.3 pmol/min/pmol CYP3A4
"O=c1cc(C(F)(F)F)c2ccc(OCc3ccccc3)cc2o1 [BFC, 7-benzyloxy-4-trifluoromethylcumarin]",activity of CYP3A4 for the reaction of BFC,"[1]; BFC at a concentration of 50 µM, according to US 6,207,404",about 1.5 pmol/min/pmol CYP3A4
same,Km,[1],> 200 µM
same,Vmax,"[1]; at 40 µM BFC, according to US 6,207,404",1.5 (at 40 µM BFC) pmol/min/pmol CYP3A4
